Test results as given in patent US20210355104A1, “ADENOSINE RECEPTOR BINDING COMPOUNDS” (Nikang Therapeuticsm Inc., priority 2018, published 2021).
Several values for one entry are separate records, joined by “and”; a condition that tells them apart may be missing. Equal entries are not always repeated.

Legend:
[1] = biological target: T1, Adenosine A2A receptor (Homo sapiens, UniProt P29274); assay: cAMP assay in 293A cells stably expressing the adenosine A2A receptor (CGS21680 stimulation, HTRF); assay type: cell-based; set-up: expressed in transfected cells; host or cells: 293A cells (Invitrogen, Cat# R705-07) infected with A2A-expressing lentivirus (custom packaged by Biosettia), puromycin selected; conditions: 293A-A2AR cells, 0.1% BSA
[2] = biological target: T1, Adenosine A2A receptor; assay: Adenosine A2A receptor competitive binding assay (Tag-lite HTRF); conditions: Tag-lite adenosine A2A receptor ligand binding
How it was run: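 Compound displacement of a red fluorescent antagonist tracer (added at 60 nM stock) from donor-labelled, pre-transfected human A2A cells was read by HTRF after 2 h at room temperature; compound dilutions contained 0.6% DMSO.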

[3] = 8 nM CGS, values separated by / are repeat determinations, read-out: cAMP (nM) 0.1% BSA, 8 nM CGS
[4] = 2 h room temperature, values separated by / are repeat determinations
[5] = 8 nM CGS, read-out: cAMP (nM) 0.1% BSA, 8 nM CGS
[6] = 1 uM CGS, read-out: cAMP (nM) 0.1% BSA, 1 uM CGS
[7] = 1 uM CGS, values separated by / are repeat determinations, read-out: cAMP (nM) 0.1% BSA, 1 uM CGS

T1 sequence (P29274 whole entry): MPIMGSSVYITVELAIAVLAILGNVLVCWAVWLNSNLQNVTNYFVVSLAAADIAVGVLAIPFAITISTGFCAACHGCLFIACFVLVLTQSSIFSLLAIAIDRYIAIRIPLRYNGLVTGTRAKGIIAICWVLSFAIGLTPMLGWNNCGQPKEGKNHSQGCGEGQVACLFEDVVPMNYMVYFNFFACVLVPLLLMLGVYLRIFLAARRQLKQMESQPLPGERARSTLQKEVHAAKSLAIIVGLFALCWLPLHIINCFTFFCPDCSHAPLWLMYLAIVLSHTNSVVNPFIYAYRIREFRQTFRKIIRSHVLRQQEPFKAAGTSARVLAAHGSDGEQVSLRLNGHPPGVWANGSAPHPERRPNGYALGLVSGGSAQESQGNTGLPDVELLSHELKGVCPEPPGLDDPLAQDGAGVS

SMILES	IC50 [1, 3]	IC50 [2, 4]	IC50 [1, 5]	IC50 ([2]; HTRF)	IC50 [1, 6]	IC50 [1, 7]
CNC(=O)COc1nc(N)nc(-c2ccc(F)cc2)c1-c1cc(C)nc(C(F)F)c1 [Example 32, 2-((2-amino-5-(2-(difluoromethyl)-6-methylpyridin-4-yl)-6-(4-fluorophenyl)pyrimidin-4-yl)oxy)-N-methylacetamide]	6.1 nM and 6.7 nM	13.9 nM	–	–	–	–
Cc1cc(-c2c(OCc3nccn3C(C)C(=O)O)nc(N)nc2-c2ccc(F)cc2)cc(C(F)F)n1 (stereo not shown) [Example 205, 2-(2-(((2-amino-5-(2-(difluoromethyl)-6-methylpyridin-4-yl)-6-(4-fluorophenyl)pyrimidin-4-yl)oxy)methyl)-1H-imidazol-1-yl)propanoic acid]	–	–	29 nM	12 nM	–	–
Cc1cc(-c2c(OCCc3ccccc3)nc(N)nc2-c2ccccc2)cc(C(F)(F)F)n1 [Example 8, 5-(2-methyl-6-(trifluoromethyl)pyridin-4-yl)-4-phenethoxy-6-phenylpyrimidin-2-amine]	7.4 nM and 7.7 nM	10.2 nM and 18 nM	–	–	–	–
Cc1cc(-c2c(OCc3nccn3CC(C)C)nc(N)nc2-c2ccc(F)cc2)cc(C(F)F)n1 [Example 176, 5-(2-(difluoromethyl)-6-methylpyridin-4-yl)-4-(4-fluorophenyl)-6-((1-isobutyl-1H-imidazol-2-yl)methoxy)pyrimidin-2-amine]	7.9 nM	3.6 nM	–	–	–	–
Cc1cc(-c2c(OCc3cccnn3)nc(N)nc2-c2ccc(F)cc2)cc(C(F)F)n1 [Example 223, 5-(2-(difluoromethyl)-6-methylpyridin-4-yl)-4-(4-fluorophenyl)-6-(pyridazin-3-ylmethoxy)pyrimidin-2-amine]	–	–	–	4.1 nM	788 nM	–
Cc1cc(-c2c(OCc3cccc(=O)n3C(C)C)nc(N)nc2-c2ccc(F)cc2)cc(C(F)F)n1 [Example 186, 6-(((2-amino-5-(2-(difluoromethyl)-6-methylpyridin-4-yl)-6-(4-fluorophenyl)pyrimidin-4-yl)oxy)methyl)-1-isopropylpyridin-2(1H)-one]	4.1 nM	2.6 nM	–	–	–	10500 nM
Cc1cc(-c2c(OCC(C)(C)C(=O)O)nc(N)nc2-c2ccc(F)cc2)cc(C(F)F)n1 [Example 61, 3-((2-amino-5-(2-(difluoromethyl)-6-methylpyridin-4-yl)-6-(4-fluorophenyl)pyrimidin-4-yl)oxy)-2,2-dimethylpropanoic acid]	233 nM	280 nM	–	–	–	–
CNC(=O)NCCOc1nc(N)nc(-c2ccccc2)c1-c1cc(C)nc(C(F)(F)F)c1 [Example 120, 1-(2-((2-amino-5-(2-methyl-6-(trifluoromethyl)pyridin-4-yl)-6-phenylpyrimidin-4-yl)oxy)ethyl)-3-methylurea]	13 nM and 8.2 nM	8.8 nM	–	–	–	–
Cc1cc(-c2c(OC[C@@H](O)CO)nc(N)nc2-c2ccc(F)cc2)cc(C(F)F)n1 [Example 83, (S)-3-((2-amino-5-(2-(difluoromethyl)-6-methylpyridin-4-yl)-6-(4-fluorophenyl)pyrimidin-4-yl)oxy)propane-1,2-diol]	2.9 nM and 7.3 nM and 22 nM	13 nM	–	–	–	1610 nM
Cc1cc(-c2c(OCc3nc(C#N)cn3C(C)C)nc(N)nc2-c2ccc(F)cc2)cc(C(F)F)n1 [Example 203]	–	–	9.6 nM	3 nM	–	–
Cc1cc(-c2c(OCC(CO)N(C)c3ccccn3)nc(N)nc2-c2ccc(F)cc2)cc(C(F)F)n1 (stereo not shown) [Example 199, 3-((2-amino-5-(2-(difluoromethyl)-6-methylpyridin-4-yl)-6-(4-fluorophenyl)pyrimidin-4-yl)oxy)-2-(methyl(pyridin-2-yl)amino)propan-1-ol]	–	–	–	7.2 nM	148 nM	–
Cc1cc(-c2c(OCc3nccn3C3CC(O)C3)nc(N)nc2-c2ccc(F)cc2)cc(C(F)F)n1 (stereo not shown) [Example 210, 3-(2-(((2-amino-5-(2-(difluoromethyl)-6-methylpyridin-4-yl)-6-(4-fluorophenyl)pyrimidin-4-yl)oxy)methyl)-1H-imidazol-1-yl)cyclobutan-1-ol]	–	–	3.7 nM and 5.4 nM	3.4 nM and 5.4 nM	2250 nM	–
Cc1cc(-c2c(NCc3cccc(CO[C@H]4CCOC4)n3)nc(N)nc2-c2ccccc2)cc(C(F)(F)F)n1 [Example 4, (S)-5-(2-methyl-6-(trifluoromethyl)pyridin-4-yl)-6-phenyl-N4-((6-(((tetrahydrofuran-3-yl)oxy)methyl)pyridin-2-yl)methyl)pyrimidine-2,4-diamine]	482 nM and 288 nM	139 nM	–	–	–	23100 nM
Cc1cc(-c2c(OCc3nncn3C(C)C)nc(N)nc2-c2ccc(F)cc2)cc(C(F)F)n1 [Example 178, 5-(2-(difluoromethyl)-6-methylpyridin-4-yl)-4-(4-fluorophenyl)-6-((4-isopropyl-4H-1,2,4-triazol-3-yl)methoxy)pyrimidin-2-amine]	1.5 nM	1.4 nM and 3.2 nM	–	–	–	–
Cc1cc(-c2c(OCC(=O)NCC(C)(F)F)nc(N)nc2-c2ccc(F)cc2)cc(C(F)F)n1 [Example 162, 2-((2-amino-5-(2-(difluoromethyl)-6-methylpyridin-4-yl)-6-(4-fluorophenyl)pyrimidin-4-yl)oxy)-N-(2,2-difluoropropyl)acetamide]	8.4 nM	21.1 nM	–	–	–	–
COCCOc1ccc(N2CCN(CCOc3nc(N)nc(-c4ccc(F)cc4)c3-c3cc(C)nc(C(F)F)c3)CC2)cc1 [Example 53, 5-(2-Difluoromethyl-6-methyl-pyridin-4-yl)-4-(4-fluoro-phenyl)-6-(2-{4-[4-(2-methoxy-ethoxy)-phenyl]-piperazin-1-yl}-ethoxy)-pyrimidin-2-ylamine]	0.67 nM	13 nM	–	–	–	–
COC(=O)NCCOc1nc(N)nc(-c2ccccc2)c1-c1cc(C)nc(C(F)(F)F)c1 [Example 119, methyl(2-((2-amino-5-(2-methyl-6-(trifluoromethyl)pyridin-4-yl)-6-phenylpyrimidin-4-yl)oxy)ethyl)carbamate]	5.8 nM and 5.4 nM	16.8 nM	–	–	–	–
CNC(=O)OCCOc1nc(N)nc(-c2ccc(F)cc2)c1-c1cc(C)nc(C(F)F)c1 [Example 143, 2-((2-amino-5-(2-(difluoromethyl)-6-methylpyridin-4-yl)-6-(4-fluorophenyl)pyrimidin-4-yl)oxy)ethyl methylcarbamate]	8.1 nM	11.7 nM	–	–	–	–
Cc1cc(-c2c(OCc3nccn3CC(C)C(=O)O)nc(N)nc2-c2ccc(F)cc2)cc(C(F)F)n1 (stereo not shown) [Example 207, 3-(2-(((2-amino-5-(2-(difluoromethyl)-6-methylpyridin-4-yl)-6-(4-fluorophenyl)pyrimidin-4-yl)oxy)methyl)-1H-imidazol-1-yl)-2-methylpropanoic acid]	–	–	29 nM	28 nM	–	–
CCN(CC)C(=O)[C@@H](C)Oc1nc(N)nc(-c2ccccc2)c1-c1cc(C)nc(C(F)(F)F)c1 [Example 13, (R)-2-((2-amino-5-(2-methyl-6-(trifluoromethyl)pyridin-4-yl)-6-phenylpyrimidin-4-yl)oxy)-N,N-diethylpropanamide]	161 nM	303 nM	–	–	–	–
Cc1cc(-c2c(OCC(=O)N3CCOCC3)nc(N)nc2-c2ccccc2)cc(C(F)(F)F)n1 [Example 10, 2-((2-amino-5-(2-methyl-6-(trifluoromethyl)pyridin-4-yl)-6-phenylpyrimidin-4-yl)oxy)-1-morpholinoethan-1-one]	8.8 nM and 51.5 nM and 24.2 nM	25.2 nM	–	–	–	–
Cc1cc(-c2c(OCCCN3CCN(c4ccc(F)cc4F)CC3)nc(N)nc2-c2ccccc2)cc(C(F)(F)F)n1 [Example 6, 4-(3-(4-(2,4-difluorophenyl)piperazin-1-yl)propoxy)-5-(2-methyl-6-(trifluoromethyl)pyridin-4-yl)-6-phenylpyrimidin-2-amine]	183 nM	74.3 nM	–	–	–	–
CCN(CCO)C(=O)COc1nc(N)nc(-c2ccc(F)cc2)c1-c1cc(C)nc(C(F)F)c1 [Example 89, 2-((2-amino-5-(2-(difluoromethyl)-6-methylpyridin-4-yl)-6-(4-fluorophenyl)pyrimidin-4-yl)oxy)-N-ethyl-N-(2-hydroxyethyl)acetamide]	2.2 nM	6.1 nM	–	–	–	–
CCN(C(=O)COc1nc(N)nc(-c2ccc(F)cc2)c1-c1cc(C)nc(C(F)F)c1)c1ccccc1 [Example 90]	6.8 nM	23 nM	–	–	–	–
Cc1cc(-c2c(OCc3ccc(C(C)(C)O)cn3)nc(N)nc2-c2ccc(F)cc2)cc(C(F)F)n1 [Example 217, 2-(6-(((2-amino-5-(2-(difluoromethyl)-6-methylpyridin-4-yl)-6-(4-fluorophenyl)pyrimidin-4-yl)oxy)methyl)pyridin-3-yl)propan-2-ol]	–	–	–	21 nM	6500 nM	–
Cc1cc(-c2c(OCc3cccc(CO[C@H]4CCOC4)n3)nc(N)nc2-c2ccccc2)cc(C(F)(F)F)n1 [Example 5, (S)-5-(2-methyl-6-(trifluoromethyl)pyridin-4-yl)-4-phenyl-6-((6-(((tetrahydrofuran-3-yl)oxy)methyl)pyridin-2-yl)methoxy)pyrimidin-2-amine]	11.5 nM	8.97 nM	–	–	–	–
Cc1cc(-c2c(OCC(=O)NC(C)C)nc(N)nc2-c2ccc(F)cc2)cc(C(F)F)n1 [Example 41, 2-((2-amino-5-(2-(difluoromethyl)-6-methylpyridin-4-yl)-6-(4-fluorophenyl)pyrimidin-4-yl)oxy)-N-isopropylacetamide]	4.1 nM	6.7 nM	–	–	–	–
